The values below come from PubChem BioAssay AID330 (DTP/NCI, 2004).

Structures are written as SMILES. “And” between values parts separate entries of the source, which are not always exact repeats. Equal entries are not always repeated. Toxic doses and inconclusive results are not listed.

The assay relates to P388 leukemia ip, CD2F1 mice, survival T/C. The experiment in a line: NCI In Vivo Anticancer Drug Screen. Data for tumor model P388 Leukemia (intraperitoneal) in CD2F1 (CDF1) mice. To be noted: endpoint: median survival time, higher = longer survival. Summed up:
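Mice carrying the transplanted tumor received test compound or vehicle. Survival was recorded in each group, and the value is the treated-group measurement divided by that of the vehicle-treated control group.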

[1] abbreviates: dose: 60.0 mg/kg/injection, schedule: Q01DX005 (ip), vehicle: saline with Tween-80.
The mark [2] stands for this setting: dose: 120.0 mg/kg/injection, schedule: Q01DX005 (ip), vehicle: saline with Tween-80.
[3] abbreviates: dose: 50.0 mg/kg/injection, schedule: Q01DX005 (ip), vehicle: Klucel (hydroxypropylcellulose) (HPC).
Where [4] appears, read: dose: 100.0 mg/kg/injection, schedule: Q01DX005 (ip), vehicle: Klucel (hydroxypropylcellulose) (HPC).
[5] abbreviates: dose: 25.0 mg/kg/injection, schedule: Q01DX009 (ip), vehicle: saline.
The mark [6] stands for this setting: dose: 100.0 mg/kg/injection, schedule: Q01DX009 (ip), vehicle: saline.
[7] abbreviates: dose: 200.0 mg/kg/injection, schedule: Q01DX009 (ip), vehicle: saline.
[8] abbreviates: dose: 50.0 mg/kg/injection, schedule: Q01DX009 (ip), vehicle: saline with Tween-80.
Setting [9] is: dose: 100.0 mg/kg/injection, schedule: Q01DX009 (ip), vehicle: saline with Tween-80.

For the molecule `Cc1ccc2c(c1)C1(SCC(=O)N1c1ccc(Cl)cc1)C(=O)N2` (stereo not drawn), the T/C by setting is: under setting [1], 101 % of control; under setting [2], 100 % of control; (dose: 240.0 mg/kg/injection, schedule: Q01DX005 (ip), vehicle: saline with Tween-80) 100 % of control.
As to `O=c1nc2oc(-c3ccccc3)cn2c(=O)n1-c1ncc(-c2ccccc2)o1`, the T/C under setting [3] was 97 % of control; the T/C under setting [4] was 100 % of control; the T/C (dose: 200.0 mg/kg/injection, schedule: Q01DX005 (ip), vehicle: Klucel (hydroxypropylcellulose) (HPC)) is 105 % of control.
Consider `Cc1ccc(S(=O)(=O)OCCOCCOCCOCCOCCOCCOCCOCCOCCOCCOCCOCCOCCOCCOS(=O)(=O)c2ccc(C)cc2)cc1`, for which the T/C by setting is: (dose: 37.5 mg/kg/injection, schedule: Q01DX001 (ip), vehicle: saline with Tween-80) 101 % of control; (dose: 75.0 mg/kg/injection, schedule: Q01DX001 (ip), vehicle: saline with Tween-80) 104 % of control; (dose: 150.0 mg/kg/injection, schedule: Q01DX001 (ip), vehicle: saline with Tween-80) 102 % of control.
For `CCOC(=O)C1C(=O)[C@H](C(=O)OC)C2CCCC3CCCC1N32` (stereo partly drawn), the T/C was 86 % of control under setting [1] and 87 % of control under setting [2].
Regarding `CC1CC[N+](C)([B-](F)(F)F)CC1` (stereo not drawn), the T/C is, setting by setting: (dose: 50.0 mg/kg/injection, schedule: Q01DX005 (ip), vehicle: saline) 100 % of control; (dose: 100.0 mg/kg/injection, schedule: Q01DX005 (ip), vehicle: saline) 106 % of control.
In the case of `O=C(O)C(CCCCNC(=S)S)NC(=S)S.[Zn+2]` (stereo not drawn), the T/C is, setting by setting: under setting [3], 95 % of control; under setting [4], 95 % of control.
On to `COC1C(O)CC(OC2CC(Oc3cc4cc5c(c(O)c4c(O)c3C)C(=O)[C@@H](OC3CC(OC4CC(OC6CC(C)(O)C(OC(C)=O)C(C)O6)C(O)C(C)O4)C(O)C(C)O3)[C@H]([C@H](OC)C(=O)[C@@H](O)[C@@H](C)O)C5)OC(C)C2OC(C)=O)OC1C` (stereo partly drawn), for which the T/C is, setting by setting: (dose: 0.02 mg/kg/injection, schedule: Q01DX001 (ip), vehicle: other) 114 % of control; (dose: 0.02 mg/kg/injection, schedule: Q01DX009 (ip), vehicle: saline sonified) 150 % of control; (dose: 0.03 mg/kg/injection, schedule: Q01DX005 (ip), vehicle: saline) 150 % of control; (dose: 0.03 mg/kg/injection, schedule: Q01DX005 (iv), vehicle: saline) 95 % of control; (dose: 0.03 mg/kg/injection, schedule: Q01DX009 (ip), vehicle: saline) 154 % of control; (dose: 0.04 mg/kg/injection, schedule: Q01DX009 (ip), vehicle: saline sonified) 165 % of control. The T/C by setting is: (dose: 0.05 mg/kg/injection, schedule: Q01DX005 (ip), vehicle: saline) 155 % of control; (dose: 0.06 mg/kg/injection, schedule: Q01DX005 (ip), vehicle: saline) 175 % of control; (dose: 0.08 mg/kg/injection, schedule: Q01DX009 (ip), vehicle: saline sonified) 180 % of control; (dose: 0.1 mg/kg/injection, schedule: Q01DX005 (ip), vehicle: saline) 155 % of control; (dose: 0.1 mg/kg/injection, schedule: Q01DX005 (iv), vehicle: saline) 98 % of control; (dose: 0.12 mg/kg/injection, schedule: Q01DX005 (ip), vehicle: saline) 190 % of control. In addition, the T/C (dose: 0.12 mg/kg/injection, schedule: Q04DX003 (ip), vehicle: saline) was 154 % of control; the T/C (dose: 0.15 mg/kg/injection, schedule: Q01DX009 (ip), vehicle: saline sonified) was 180 % of control; the T/C (dose: 0.2 mg/kg/injection, schedule: Q01DX005 (ip), vehicle: saline) is 158 % of control; the T/C (dose: 0.2 mg/kg/injection, schedule: Q01DX005 (iv), vehicle: saline) is 100 % of control; the T/C (dose: 0.25 mg/kg/injection, schedule: Q01DX005 (ip), vehicle: saline) was 220 % of control; the T/C (dose: 0.25 mg/kg/injection, schedule: Q04DX003 (ip), vehicle: saline) is 175 % of control. For the same molecule, the T/C runs as follows: (dose: 0.3 mg/kg/injection, schedule: Q01DX009 (ip), vehicle: saline sonified) 180 % of control; (dose: 0.3 mg/kg/injection, schedule: Q04DX003 (ip), vehicle: saline sonified) 181 % of control; (dose: 0.4 mg/kg/injection, schedule: Q01DX005 (ip), vehicle: saline) 229 % of control; (dose: 0.5 mg/kg/injection, schedule: Q01DX001 (ip), vehicle: other) 158 % of control; (dose: 0.5 mg/kg/injection, schedule: Q01DX001 (ip), vehicle: saline) 172 % of control; (dose: 0.5 mg/kg/injection, schedule: Q04DX003 (ip), vehicle: saline) 87 % of control.
As for `CNC(=O)Nc1ccc[nH]c1=O`, the T/C by setting is: (dose: 25.0 mg/kg/injection, schedule: Q01DX009 (ip), vehicle: Klucel (hydroxypropylcellulose) (HPC)) 103 % of control and 95 % of control; under setting [5], 101 % of control; (dose: 50.0 mg/kg/injection, schedule: Q01DX009 (ip), vehicle: Klucel (hydroxypropylcellulose) (HPC)) 90 % of control and 91 % of control; (dose: 50.0 mg/kg/injection, schedule: Q01DX009 (ip), vehicle: saline) 99 % of control and 97 % of control; (dose: 100.0 mg/kg/injection, schedule: Q01DX009 (ip), vehicle: Klucel (hydroxypropylcellulose) (HPC)) 105 % of control and 96 % of control; under setting [6], 100 % of control and 108 % of control. Further, the T/C (dose: 200.0 mg/kg/injection, schedule: Q01DX009 (ip), vehicle: Klucel (hydroxypropylcellulose) (HPC)) is 101 % of control and 87 % of control; the T/C under setting [7] was 99 % of control; the T/C (dose: 400.0 mg/kg/injection, schedule: Q01DX009 (ip), vehicle: Klucel (hydroxypropylcellulose) (HPC)) is 109 % of control and 96 % of control; the T/C (dose: 400.0 mg/kg/injection, schedule: Q01DX009 (ip), vehicle: saline) is 102 % of control and 109 % of control.
For `CN(C)C(=S)NCc1ccccc1`, the T/C reads like this: (dose: 100.0 mg/kg/injection, schedule: Q04DX003 (ip), vehicle: saline with Tween-80) 100 % of control; (dose: 200.0 mg/kg/injection, schedule: Q04DX003 (ip), vehicle: saline with Tween-80) 100 % of control.
Turning to `Cn1cnc([N+](=O)[O-])c1Sc1ncn[nH]1`, the T/C was 106 % of control (dose: 12.5 mg/kg/injection, schedule: Q01DX009 (ip), vehicle: saline); 122 % of control under setting [5]; 122 % of control under setting [6]; 113 % of control under setting [7].
Take `CC(C)(C)CC(C)(C)c1ccc(OCc2ccccc2Cl)cc1`: the T/C was 98 % of control under setting [8]; 95 % of control under setting [9]; 100 % of control (dose: 200.0 mg/kg/injection, schedule: Q01DX009 (ip), vehicle: saline with Tween-80).
On to `CN1C(=O)C2CCC1n1c(=O)n(-c3ccccc3)c(=O)n12` (stereo not drawn), for which the T/C is, setting by setting: (dose: 100.0 mg/kg/injection, schedule: Q01DX001 (ip), vehicle: Klucel (hydroxypropylcellulose) (HPC)) 97 % of control; (dose: 200.0 mg/kg/injection, schedule: Q01DX001 (ip), vehicle: Klucel (hydroxypropylcellulose) (HPC)) 99 % of control; (dose: 400.0 mg/kg/injection, schedule: Q01DX001 (ip), vehicle: Klucel (hydroxypropylcellulose) (HPC)) 94 % of control.
As for `O=[N+]([O-])c1cc(Br)cc2c1[nH]c1nc3ccc(C(F)(F)F)cc3nc12`, the T/C reads like this: (dose: 100.0 mg/kg/injection, schedule: Q04DX003 (ip), vehicle: saline) 91 % of control; (dose: 200.0 mg/kg/injection, schedule: Q04DX003 (ip), vehicle: saline) 95 % of control; (dose: 400.0 mg/kg/injection, schedule: Q04DX003 (ip), vehicle: saline) 94 % of control.
Consider `N#CCC(=O)O`, for which the T/C is 100 % of control (dose: 18.75 mg/kg/injection, schedule: Q04DX003 (ip), vehicle: saline); 100 % of control (dose: 37.5 mg/kg/injection, schedule: Q04DX003 (ip), vehicle: saline); 90 % of control (dose: 75.0 mg/kg/injection, schedule: Q04DX003 (ip), vehicle: saline).
With `C1CN(SSN2CCOCC2)CCO1`, the T/C runs as follows: (dose: 12.5 mg/kg/injection, schedule: Q01DX009 (ip), vehicle: saline with Tween-80) 113 % of control; (dose: 25.0 mg/kg/injection, schedule: Q01DX009 (ip), vehicle: saline with Tween-80) 104 % of control; under setting [8], 100 % of control; under setting [9], 100 % of control.
For the molecule `COc1cc(OC)c(C(c2cc3c(cc2O)OCO3)N2CCOCC2)c(OC)c1` (stereo not drawn), the T/C runs as follows: under setting [1], 118 % of control; under setting [2], 120 % of control.
